From patent US20020156112A1, “Endostatin-like angiogenesis inhibition” (priority 2000, published 2002)

Legend:
Type in all cases: binding
[1] = test system: RGD-endostatin interaction; experiment: Colloid colour-change drug screen for endostatin mimics via RGD/endostatin interaction (Example 8); details: 5 μL candidate drug at 2.9 mg/ml in DMSO; 4.75 ul of 0.1 mg/mL endostatin; room temperature, about 20 minutes
Method: In yet another aspect of the invention, a high throughput drug screening assay is described that identifies endostatin mimics is described. Histidine-tagged peptides containing two tandem GRGDS motifs are immobilized, from a phosphate buffered saline solution, onto gold nanoparticles (called colloids) that have been derivatized with NTA-Ni-SAMs that capture histidine-tagged species. Endostatin, which is a dimer in its functional form, is added to the colloidal solution. Dimeric endostatin presents two binding sites that recognize GRGDS motif peptides. The binding of dimeric endostatin to two peptides attached to two different colloids, draws the colloids close together and causes the color of the gold colloid solution to change from pink to blue. Recall that colloidal gold appears pink when the particles are dispersed in a homogeneous solution, but the solution turns blue when the particles are aggregated, see FIG. 5. Drug candidates are added to the colloid-immobilized GRGDS motif peptides and endostatin solution. When a drug candidate effectively interrupts the endostatin—GRGDS motif peptide interaction, the solution remains pink. Recall that the drug candidates are monomeric and therefore, even if they bind to the GRGDS peptides, they cannot bring two colloids together, which would cause the solution color to change from the inherent pink, to blue, see FIG. 7.
60 uM NTA colloids presenting a His-tagged peptide containing […] RGD motifs (GRGDSGRGDS) were prepared by incubating 1 mL of colloids with 200 ul 100 uM His-RGD for ten minutes, pelleting the colloids to remove excess unbound peptide, and resuspending the colloids in PBS. Negative control colloids were prepared by substituting a random His-tagged peptide in place of the RGD peptide. 30 μL RGD-colloids (or random peptide-colloids for negative controls) were added to each well of a 96-well plate along with 60 ul PBS per well. 5 μL of a candidate drug at 2.9 mg/ml in DMSO was added to each well of the plate. Candidate drugs including L-histidine, D-cycloserine, quisqualic acid and suramin were assessed. (See FIGS. 1-4). DMSO was added in place of a drug to each of the positive and negative controls. 4.75 ul of 0.1 mg/mL endostatin was added to each well. The plate was incubated at room temperature and observed for color change. After about 20 minutes, the positive controls changed color from pink to blue as the endostatin bound to the RGD peptide. […] Drugs identified in this manner that bound to the RGD motif and inhibited binding of endostatin may be endostatin mimics and could be used as synthetic replacements of endostatin.

[2] = Biotin-streptavidin interaction with gold colloids (Example 1)
Method: (§1) Gold colloids were prepared using a mixture of 10 μM biotin thiol, 10 μM NTA thiol, and 580 μM C11 thiol. Control colloids were prepared using 20 μM NTA thiol and 580 μM C11 thiol for a total thiol concentration of 600 μM. After deposition, the colloids were heat cycled in 400 μM EG3 thiol, and charged with nickel sulfate. A streptavidin stock solution (1 mg/mL) was prepared in 10 mM sodium phosphate buffer, 100 mM sodium chloride, pH 7.4 (buffer) To detect the biotin-streptavidin interaction, 60 μL buffer, 10 μL streptavidin, and 30 μL colloids, were mixed in a well of a 96-well plate. The plate was incubated at room temperature and observed for color change. At the three highest concentrations of streptavidin (0.1 mg/mL, 0.01 mg/mL, 0.001 mg/mL) the colloids presenting biotin turned blue (wells A1, A2, A3, FIG. 5). At lower concentrations of streptavidin, the wells containing biotin colloids remained pink (wells A4, A5, A6, A7). A similar experiment was performed using colloids presenting only the NTA group (wells B1-B7).
(§2) FIG. 5 is a digital photo of a colorimetric nanoparticle experiment in which gold colloids were derivatized with either biotin-SAMs (top row) or NTA-Ni-SAMs (bottom row). Streptavidin which has four binding sites for biotin, and thus will cross-link biotin-presenting colloids, was added free in solution. […]

[3] = Biotin-streptavidin interaction, control colloids (Example 1); details: same streptavidin concentrations; wells B1-B7
Method: as §1, §2

[4] = biological target: T1, endostatin—GRGDS interaction (Homo sapiens, UniProt P39060); experiment: Vitronectin competition in gold colloid colour-change assay (Example 6)
T1 construct: purchased Calbiochem 324746
T1 sequence (P39060 1572-1754 limits assumed): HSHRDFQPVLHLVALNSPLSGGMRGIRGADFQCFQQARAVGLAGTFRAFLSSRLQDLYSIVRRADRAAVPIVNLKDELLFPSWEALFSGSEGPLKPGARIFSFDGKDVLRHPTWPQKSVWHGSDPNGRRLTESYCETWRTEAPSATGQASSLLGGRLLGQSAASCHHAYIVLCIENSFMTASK
Method: 40 μM NTA gold colloids were prepared which presented the His-tagged RGD peptide (Sequence ID No.1, see Table 1). These colloids were mixed with endostatin (0.1 mg /mL) and turned blue, indicating binding of endostatin to the GRGDS peptide (A1, A2, FIG. 6). Control colloids presenting an irrelevant FLR-peptide (Sequence ID #2, see table 1) remained pink (wells A3, A4). At the highest concentration of vitronectin (0.1 mg /ml), the endostatin—GRGDS interaction is disrupted, and the well remains pink (B1). At lower concentrations of vitronectin, the endostatin—GRDS interaction is not affected and the wells turn blue (B2-B5).

## N[C@@H]1CONC1=O [D-cycloserine]
[1]
  disruption of RGD-endostatin interaction (well remains pink): disrupted the RGD-endostatin interaction

## N[C@@H](Cc1c[nH]cn1)C(=O)O [L-histidine]
[1]
  disruption of RGD-endostatin interaction (well remains pink): disrupted the RGD-endostatin interaction

## N[C@@H](Cn1oc(=O)[nH]c1=O)C(=O)O [quisqualic acid]
[1]
  disruption of RGD-endostatin interaction (well remains pink): disrupted the RGD-endostatin interaction

## Cc1ccc(C(=O)Nc2ccc(S(=O)(=O)O)c3cc(S(=O)(=O)O)cc(S(=O)(=O)O)c23)cc1NC(=O)c1cccc(NC(=O)Nc2cccc(C(=O)Nc3cc(C(=O)Nc4ccc(S(=O)(=O)O)c5cc(S(=O)(=O)O)cc(S(=O)(=O)O)c45)ccc3C)c2)c1 [suramin]
[1]
  disruption of RGD-endostatin interaction (well remains pink): disrupted the RGD-endostatin interaction

## streptavidin: Streptavidin which has four binding sites for biotin, added free in solution
[2]; lower concentrations of streptavidin, wells A4-A7
  colour of biotin colloids: remained pink
[2]; three highest concentrations of streptavidin (0.1 mg/mL, 0.01 mg/mL, 0.001 mg/mL), wells A1-A3
  colour of biotin colloids: turned blue
[3]
  colour of NTA-only control colloids: remained pink

## vitronectin: full-length vitronectin, a cell adhesion molecule containing the GRGDS motif
[4]; highest concentration of vitronectin (0.1 mg/ml), well B1
  effect on endostatin—GRGDS interaction: disrupted
[4]; lower concentrations of vitronectin, wells B2-B5
  effect on endostatin—GRGDS interaction: not affected
